Reference: patent publication US10413520B2, “Oral pharmacological composition including 5-{4-(amino sulfonyl)phenyl}-2,2-dimethyl-4-(3-fluorophenyl)-3(2H)-furanone having crystalline structure with excellent stability” (CRYSTALGENOMICS, INC., priority 2014, dated 2019)

Key:
Assay type in all cases: physicochemical
[1] = Room temperature storage of anhydrous form; settings: stored at room temperature for a long period
Experimental: Then, about 18 g of the compound was dissolved in 200 mL of acetone. The completely dissolved solution was vacuum dried at 40° C. using a rotary evaporator (Buchi Rota Vapour R200). The compound thus obtained was a sponge-like solid. When the compound was stored at room temperature for a long period, the structure of the crystalline form A was gradually formed, and related substances were created due to hygroscopic property.

[2] = Light stability of crystalline form A in capsules; settings: PTP, light stress (white and UV florescent lamp)
Experimental: The crystalline form A was filled in a hard capsule (2 mg per capsule) and stored under the light stress conditions shown in Table 11. Thereafter, the appearance of the crystalline form A, the retention time of the major peak, the amounts (%) of related substances, and the compound content were analyzed.

[3] = Humidity stability of crystalline form A in capsules; settings: PTP, 25 ± 2° C., 90 ± 5% RH
Experimental: The crystalline form A was filled in a hard capsule (2 mg per capsule) and stored under the severe humidity conditions shown in Table 10. Thereafter, the appearance of the crystalline form A, the retention time of the major peak, the amounts (%) of related substances, and the compound content were analyzed.

[4] = Particle size analysis by laser diffraction; settings: dry module, 2 bar
Experimental: The particle sizes of the crystalline form of Comparative Examples 1 and 2 and Example 39 were analyzed using a laser diffraction-based particle size analyzer (Mastersizer 2000®, Malvern). After each sample was fed into a dry module (Scirocco 2000®, Malvern) at a pressure of 2 bar, the 50% volume particle diameter (d(0.5)) and 90% volume particle diameter (d(0.9)) of the particles were measured.

[5] = Dissolution rates of crystalline form with different particle sizes; settings: 2 mg per hard capsule, 900 ml pH 1.2 and pH 6.8 solutions, 100 rpm, 37±0.5° C., 3 hr
Experimental: In this example, the dissolution rates of the crystalline form with different particle sizes were examined. The particles of Comparative Examples 1 and 2 and Example 39 were filled in different hard capsules (2 mg per capsule) and were then eluted in 900 ml of a pH 1.2 solution and 900 ml of a pH 6.8 solution at a revolution number of 100 rpm and a temperature of 37±0.5° C. for 3 hr. The eluted particles were analyzed under the same HPLC conditions as described in Test Example 1.

[6] = Temperature stability of crystalline form A in capsules; settings: PTP, 60 ± 5% RH
Experimental: The retention time of the major peak, the amounts of related substances, and the compound content were analyzed by HPLC under the following conditions.
<HPLC Conditions for Analysis of Related Substances>
Column: Hypurity C18, 250×4.6 mm, […] or its equivalent column
Detector: UV absorption spectrometer (measured at 241 nm)
Column temperature: 30° C.
Mobile phase: A—acetonitrile, B—0.1% v/v trifluoroacetic acid (TFA) in water
<HPLC Conditions for Analysis of the Compound Content>
Detector: UV absorption spectrometer (measured at 325 nm)
Mobile phase: A—acetonitrile, B—water, A:B=60:40, v/v %
Diluent: water:acetonitrile=50:50, v/v %

CC1(C)OC(c2ccc(S(N)(=O)=O)cc2)=C(c2cccc(F)c2)C1=O [Preparation Example 2]
Physicochemical stability [1]: physicochemically unstable

CC1(C)OC(c2ccc(S(N)(=O)=O)cc2)=C(c2cccc(F)c2)C1=O [Example 39]
Amounts of related substances (each) ([2]; 1 week): 1.7% | Amounts of related substances (total) ([2]; 1 week): 3.0% | Appearance ([2]; 1 week): Unchanged | Content ([2]; 1 week): 103.4% | Peak retention time confirmation ([2]; 1 week): The same | Amounts of related substances (each) ([2]; 2 weeks): 2.1% | Amounts of related substances (total) ([2]; 2 weeks): 3.7% | Appearance ([2]; 2 weeks): Unchanged | Content ([2]; 2 weeks): 103.1% | Peak retention time confirmation ([2]; 2 weeks): The same | Amounts of related substances (each) ([2]; 4 weeks): 2.3% | Amounts of related substances (total) ([2]; 4 weeks): 4.1% | Appearance ([2]; 4 weeks): Unchanged | Content ([2]; 4 weeks): 99.1% | Peak retention time confirmation ([2]; 4 weeks): The same | Amounts of related substances (each) ([3]; 1 week): 0.1% | Amounts of related substances (total) ([3]; 1 week): 0.1%, | Appearance ([3]; 1 week): Unchanged | Content ([3]; 1 week): 103.1% | Peak retention time confirmation ([3]; 1 week): The same | Amounts of related substances (each) ([3]; 2 weeks): 0.1%, 0.1% | Amounts of related substances (total) ([3]; 2 weeks): 0.1%, 0.1% | Appearance ([3]; 2 weeks): Unchanged | Content ([3]; 2 weeks): 103.1% | Peak retention time confirmation ([3]; 2 weeks): The same | Amounts of related substances (each) ([3]; 4 weeks): 0.1%, | Amounts of related substances (total) ([3]; 4 weeks): 0.1% | Appearance ([3]; 4 weeks): Unchanged | Content ([3]; 4 weeks): 101.2% | Peak retention time confirmation ([3]; 4 weeks): The same | Particle size d(0.1) [4]: 1.75 μm | Particle size d(0.5), 50% volume particle diameter [4]: 5.98 μm | Particle size d(0.9), 90% volume particle diameter [4]: 15.23 μm | Dissolution rate [5]: higher dissolution rates than the particles of Comparative Examples 1 and 2 | Amounts of related substances (each) ([6]; 60 ± 2° C., 24 hr): 0.0%, | Amounts of related substances (total) ([6]; 60 ± 2° C., 24 hr): 0.0% | Appearance ([6]; 60 ± 2° C., 24 hr): Unchanged | Content ([6]; 60 ± 2° C., 24 hr): 103.0% | Peak retention time confirmation ([6]; 60 ± 2° C., 24 hr): The same | Amounts of related substances (each) ([6]; 80 ± 2° C., 24 hr): 0.0%, | Amounts of related substances (total) ([6]; 80 ± 2° C., 24 hr): 0.0% | Appearance ([6]; 80 ± 2° C., 24 hr): Unchanged | Content ([6]; 80 ± 2° C., 24 hr): 101.5% | Peak retention time confirmation ([6]; 80 ± 2° C., 24 hr): The same | Amounts of related substances (each) ([6]; 90 ± 2° C., 24 hr): 0.0%, | Amounts of related substances (total) ([6]; 90 ± 2° C., 24 hr): 0.0% | Appearance ([6]; 90 ± 2° C., 24 hr): Unchanged | Content ([6]; 90 ± 2° C., 24 hr): 101.8% | Peak retention time confirmation ([6]; 90 ± 2° C., 24 hr): The same | Amounts of related substances (each) ([6]; 90 ± 2° C., 72 hr): 0.1%, | Amounts of related substances (total) ([6]; 90 ± 2° C., 72 hr): 0.1% | Appearance ([6]; 90 ± 2° C., 72 hr): Unchanged | Content ([6]; 90 ± 2° C., 72 hr): 101.1% | Peak retention time confirmation ([6]; 90 ± 2° C., 72 hr): The same
